Measurements reported in US8222219B2, “Glucopyranoside compound” (Mitsubishi Tanabe Pharma Corporation, priority 2003, dated 2012).
Read-outs that look alike come from different tables or passages of the source.

Key:
human SGLT2 = target: T1, human SGLT2 (Homo sapiens, UniProt P31639); test: Assay for SGLT2 inhibition (14C-AMG uptake in CHOK1 cells expressing human SGLT2); type: cell-based
T1 construct: expressed in transfected cells; host or cells: CHOK1 (CHO-K1) cells, kept under Geneticin selection
T1 sequence (P31639 1-672): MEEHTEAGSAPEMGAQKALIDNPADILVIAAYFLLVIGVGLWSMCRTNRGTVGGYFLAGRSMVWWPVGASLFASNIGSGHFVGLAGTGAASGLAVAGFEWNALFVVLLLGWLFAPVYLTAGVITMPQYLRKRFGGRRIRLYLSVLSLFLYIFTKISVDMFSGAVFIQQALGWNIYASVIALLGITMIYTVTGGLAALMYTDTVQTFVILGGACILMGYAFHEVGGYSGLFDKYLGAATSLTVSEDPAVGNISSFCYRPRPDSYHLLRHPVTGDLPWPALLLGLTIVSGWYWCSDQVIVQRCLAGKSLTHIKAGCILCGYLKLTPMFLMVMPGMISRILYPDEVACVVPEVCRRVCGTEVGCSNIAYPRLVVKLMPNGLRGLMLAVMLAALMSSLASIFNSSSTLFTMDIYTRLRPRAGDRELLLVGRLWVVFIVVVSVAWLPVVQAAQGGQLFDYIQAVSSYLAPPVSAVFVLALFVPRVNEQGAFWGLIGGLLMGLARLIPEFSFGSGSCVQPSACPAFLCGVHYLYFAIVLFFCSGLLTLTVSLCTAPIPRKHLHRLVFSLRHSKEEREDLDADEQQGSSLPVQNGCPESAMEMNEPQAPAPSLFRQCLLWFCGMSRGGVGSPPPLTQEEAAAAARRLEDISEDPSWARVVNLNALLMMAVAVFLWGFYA
Method: 1. Assay for SGLT2 Inhibition
Compounds described in the above examples were used for the SGLT2 inhibition assay.
CHOK1 cells expressing human SGLT2 were seeded in 24-well plates at a density of 400,000 cells/well in F-12 nutrient mixture (Ham's F-12) containing 10% fetal bovine serum, 400 μg/ml Geneticin, 50 units/ml sodium penicillin G (Gibco-BRL) and 50 μg/ml streptomycin sulfate. […] Test compounds were dissolved in DMSO. The final concentration of DMSO was 0.5%. The transport reaction was initiated by addition of 50 μl [^14C]-methyl-α-D-glucopyranoside (^14C-AMG) solution (final concentration, 0.5 mM). After incubation for 2 hours at 37° C., the uptake was stopped by aspiration of the incubation mixture, the cells were washed three times with ice-cold PBS. Then, cells were solubilized with 0.3 N NaOH and aliquots were taken for determination of radioactivity by a liquid scintillation counter. Nonspecific AMG uptake was defined as that which occurred in the presence of 100 μM of phlorizin, a specific inhibitor of sodium-dependent glucose cotransporter. Specific uptake was normalized for the protein concentrations measured by the method of Bradford.

Sprague-Dawley (SD) rats = test: Urinary glucose excretion test in rats; type: in vivo, rat; details: male SD rats, 30 mg/kg oral gavage, urine collected for 24 hours; daily amount of glucose excreted per individual
Method: 2. Urinary Glucose Excretion Test in Rats Test Compounds:
Compounds described in the above examples were used for the urinary glucose excretion test in rats.
6-week-old male Sprague-Dawley (SD) rats were housed in individual metabolic cages with free access to food and water from 2 days prior to the experiment. On the morning of the experiment, rats were administered vehicle (0.2% carboxymethyl cellulose solution containing 0.2% Tween80) or test compounds (30 mg/kg) by oral gavage at a volume of 10 ml/kg. Then, urine of the rat was collected for 24 hours, and the urine volume was measured. Subsequently, the glucose concentration in urine was quantified using the enzymatic assay kit and the daily amount of glucose excreted in urine per individual was calculated.

[1] = CHOK1 cells expressing human SGLT2, 14C-AMG uptake 0.5 mM, 2 hours at 37° C., read-out: IC50

IC50 (human SGLT2; [1]) [nM] | SMILES | Urinary glucose (Sprague-Dawley (SD) rats) | IC50 (human SGLT2) [nM]
2.6 | OC[C@H]1O[C@@H](c2ccc(Cl)c(Cc3ccc(-c4ccc(F)cn4)s3)c2)[C@H](O)[C@@H](O)[C@@H]1O [Example 194, 1-(β-D-glucopyranosyl)-4-chloro-3-(5-(5-fluoropyridin-2-yl)-2-thienylmethyl)benzene] | A (A≧2000 mg) | 
2.5 | Cc1ccc([C@@H]2O[C@H](CO)[C@@H](O)[C@H](O)[C@H]2O)cc1Cc1ccc(-c2ccc(C#N)cc2)s1 [Example 151] | B (2000 mg>B≧1000 mg) | 
3.5 | COc1cccc(-c2ccc(Cc3cc([C@@H]4O[C@H](CO)[C@@H](O)[C@H](O)[C@H]4O)ccc3Cl)s2)n1 [Example 170, 1-(β-D-glucopyranosyl)-4-chloro-3-(5-(6-methoxy-2-pyridyl)-2-thienylmethyl)benzene] | B (2000 mg>B≧1000 mg) | 
2.8 | Cc1ccc([C@@H]2O[C@H](CO)[C@@H](O)[C@H](O)[C@H]2O)cc1Cc1ccc(-c2ccc(F)s2)s1 [Example 148] | B (2000 mg>B≧1000 mg) | 
3.6 | COc1ccc(-c2ccc(Cc3cc([C@@H]4O[C@H](CO)[C@@H](O)[C@H](O)[C@H]4O)ccc3Cl)s2)cn1 [Example 169, 1-(β-D-glucopyranosyl)-4-chloro-3-(5-(6-methoxy-3-pyridyl)-2-thienylmethyl)benzene] | B (2000 mg>B≧1000 mg) | 
1.4 | N#Cc1cccc(-c2ccc(Cc3cc([C@@H]4O[C@H](CO)[C@@H](O)[C@H](O)[C@H]4O)ccc3Cl)s2)c1 [Example 123, 1-(β-D-glucopyranosyl)-4-chloro-3-(5-(3-cyanophenyl)-2-thienylmethyl)benzene] | A (A≧2000 mg) | 
2.3 | OC[C@H]1O[C@@H](c2ccc(Cl)c(Cc3ccc(-c4ccc(F)nc4)s3)c2)[C@H](O)[C@@H](O)[C@@H]1O [Example 168, 1-(β-D-glucopyranosyl)-4-chloro-3-(5-(6-fluoro-3-pyridyl)-2-thienylmethyl)benzene] | A (A≧2000 mg) | 
2.2 | Cc1ccc([C@@H]2O[C@H](CO)[C@@H](O)[C@H](O)[C@H]2O)cc1Cc1ccc(-c2cccc(F)n2)s1 [Example 146] | A (A≧2000 mg) | 
1.3 | Cc1ccc([C@@H]2O[C@H](CO)[C@@H](O)[C@H](O)[C@H]2O)cc1Cc1ccc(-c2cccc(C#N)c2)s1 [Example 127, 1-(β-D-glucopyranosyl)-3-(5-(3-cyanophenyl)-2-thienylmethyl)-4-methylbenzene] | A (A≧2000 mg) | 
 | OC[C@H]1O[C@@H](n2cc(Cc3cc4ccccc4s3)c3ccccc32)[C@H](O)[C@@H](O)[C@@H]1O [Example 195, 1-(β-D-glucopyranosyl)-3-(benzo[b]thiophen-2-ylmethyl)indole] | B (2000 mg>B≧1000 mg) | 
7 | OC[C@H]1O[C@@H](c2ccc(Cl)c(Cc3ccc(-c4ccc(F)cc4)s3)c2)[C@H](O)[C@@H](O)[C@@H]1O [Example 70] |  | 
1.4 | OC[C@H]1O[C@@H](c2ccc(Cl)c(Cc3ccc(-c4cncs4)s3)c2)[C@H](O)[C@@H](O)[C@@H]1O [Example 204] |  | 
2.5 | COc1c(Cc2ccc(-c3cccc(F)n3)s2)cc([C@@H]2O[C@H](CO)[C@@H](O)[C@H](O)[C@H]2O)c2ccccc12 [Example 268] |  | 
9.5 | N#Cc1ccc(-c2ccc(Cc3cc([C@@H]4O[C@H](CO)[C@@H](O)[C@H](O)[C@H]4O)ccc3Cl)s2)cc1F [Example 183, 1-(β-D-glucopyranosyl)-4-chloro-3-(5-(4-cyano-3-fluorophenyl)-2-thienylmethyl)benzene] |  | 
3.2 | Cc1ccc([C@@H]2O[C@H](CO)[C@@H](O)[C@H](O)[C@H]2O)cc1Cc1ccc(-n2cccn2)s1 [Example 227] |  | 
8.2 | Cc1ccc([C@@H]2O[C@H](CO)[C@@H](O)[C@H](O)[C@H]2O)cc1Cc1ccc(-c2cccc(N(C)C)c2)s1 [Example 122, 1-(β-D-glucopyranosyl)-3-(5-(3-dimethylaminophenyl)-2-thienylmethyl)-4-methylbenzene] |  | 
0.9 | NC(=O)c1ccc(-c2ccc(Cc3cc([C@@H]4O[C@H](CO)[C@@H](O)[C@H](O)[C@H]4O)ccc3Cl)s2)cc1 [Example 193, 1-(β-D-glucopyranosyl)-3-(5-(4-carbamoylphenyl)-2-thienylmethyl)-4-chlorobenzene] |  | 

IC50 (human SGLT2; [1]) [nM] | SMILES | Urinary glucose (Sprague-Dawley (SD) rats) | IC50 (human SGLT2) [nM]
2.4 | Cc1ccc([C@@H]2O[C@H](CO)[C@@H](O)[C@H](O)[C@H]2O)cc1Cc1ccc(-c2cccc(C(F)F)c2)s1 [Example 130, 1-(β-D-glucopyranosyl)-3-(5-(3-difluoromethylphenyl)-2-thienylmethyl)-4-methylbenzene] |  | 
0.6 | OC[C@H]1O[C@@H](c2ccc(Cl)c(Cc3ccc(-c4cscn4)s3)c2)[C@H](O)[C@@H](O)[C@@H]1O [Example 207] |  | 
3 | Cc1ccc([C@@H]2O[C@H](CO)[C@@H](O)[C@H](O)[C@H]2O)cc1Cc1ccc(-c2cccc(Cl)c2)s1 [Example 89] |  | 
7.7 | CCOC(=O)c1ccc(-c2ccc(Cc3cc([C@@H]4O[C@H](CO)[C@@H](O)[C@H](O)[C@H]4O)ccc3Cl)s2)cc1 [Example 191, 1-(β-D-glucopyranosyl)-4-chloro-3-(5-(4-ethoxycarbonylphenyl)-2-thienylmethyl)benzene] |  | 
1.7 | OC[C@H]1O[C@@H](c2ccc(Cl)c(Cc3ccc(-c4cccc(F)c4)s3)c2)[C@H](O)[C@@H](O)[C@@H]1O [Example 78] |  | 
 | Cc1ccc([C@@H]2O[C@H](CO)[C@@H](O)[C@H](O)[C@H]2O)cc1Cc1ccc(-c2ccc(F)cc2)s1 [Example 84] |  | 2.2
4.3 | N#Cc1ccc(-c2ccc(Cc3cc([C@@H]4O[C@H](CO)[C@@H](O)[C@H](O)[C@H]4O)ccc3Cl)s2)cn1 [Example 187, 1-(β-D-glucopyranosyl)-4-chloro-3-(5-(2-cyano-5-pyridyl)-2-thienylmethyl)benzene] |  | 
3.5 | CCOc1ccc2sc(Cc3cc([C@@H]4O[C@H](CO)[C@@H](O)[C@H](O)[C@H]4O)ccc3C)cc2c1 [Example 231] |  | 
2.7 | COc1ccc2sc(Cc3cc([C@@H]4O[C@H](CO)[C@@H](O)[C@H](O)[C@H]4O)ccc3C)cc2c1 [Example 229] |  | 
2.8 | Cc1ccc([C@@H]2O[C@H](CO)[C@@H](O)[C@H](O)[C@H]2O)cc1Cc1ccc(-c2ccc(OC(F)F)cc2)s1 [Example 237] |  | 
3.9 | COc1ccc(-c2ccc(Cc3cc([C@@H]4O[C@H](CO)[C@@H](O)[C@H](O)[C@H]4O)ccc3C)s2)cn1 [Example 209] |  | 
9 | CCOc1cccc(-c2ccc(Cc3cc([C@@H]4O[C@H](CO)[C@@H](O)[C@H](O)[C@H]4O)ccc3F)s2)c1 [Example 79] |  | 
5.6 | Cc1ccc([C@@H]2O[C@H](CO)[C@@H](O)[C@H](O)[C@H]2O)cc1Cc1ccc(-c2ccc(F)c(C#N)c2)s1 [Example 185, 1-(β-D-glucopyranosyl)-4-methyl-3-(5-(3-cyano-4-fluorophenyl)-2-thienylmethyl)benzene] |  | 
3.3 | OC[C@H]1O[C@@H](c2ccc(Cl)c(Cc3ccc(-c4ccnc(F)c4)s3)c2)[C@H](O)[C@@H](O)[C@@H]1O [Example 216] |  | 
6.6 | CCOc1ccc(-c2ccc(Cc3cc([C@@H]4O[C@H](CO)[C@@H](O)[C@H](O)[C@H]4O)ccc3Cl)s2)cc1 [Example 71] |  | 
4.6 | CCOc1cccc(-c2ccc(Cc3cc([C@@H]4O[C@H](CO)[C@@H](O)[C@H](O)[C@H]4O)ccc3Cl)s2)c1 [Example 72] |  | 
2 | Nc1ccc(-c2ccc(Cc3cc([C@@H]4O[C@H](CO)[C@@H](O)[C@H](O)[C@H]4O)ccc3Cl)s2)cc1 [Example 197, 1-(β-D-glucopyranosyl)-3-(5-(4-aminophenyl)-2-thienylmethyl)-4-chlorobenzene] |  | 
